pEC50, pIC50: −log10 of the molar value. In brackets after ≈: the same amount, converted by molar mass. Activity calls are given as the source filed them. The calls are words filed in the database; no cut-off is given here.
What was measured:
[1] = molecular target: T1, Cdk-related protein kinase 6 (Plasmodium falciparum, UniProt O77239)
T1 sequence (O77239 whole entry): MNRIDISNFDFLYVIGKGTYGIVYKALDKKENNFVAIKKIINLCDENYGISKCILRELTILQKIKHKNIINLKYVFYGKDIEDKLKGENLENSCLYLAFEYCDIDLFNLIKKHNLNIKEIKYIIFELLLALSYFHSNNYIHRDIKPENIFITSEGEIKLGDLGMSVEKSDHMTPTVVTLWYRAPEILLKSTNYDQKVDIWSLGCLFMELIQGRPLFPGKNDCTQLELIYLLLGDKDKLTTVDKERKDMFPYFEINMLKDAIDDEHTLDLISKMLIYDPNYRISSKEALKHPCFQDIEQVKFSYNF
Description: Inhibition of N-terminal 6His-tagged plasmodium falciparum PK6 expressed in Escherichia coli BL21(DE3) incubated for 15 mins in presence of [gamma-32p]ATP and ATP by SDS-PAGE based autoradiography analysis

HepG2 [2] = assay: Cytotoxicity against human HepG2 cells infected with liver stage Plasmodium berghei ANKA sporozoites assessed as reduction in cell viability measured after 44 hrs by […] assay; format: toxicity, cell-based; conditions: hepg2, 44 h
Plasmodium falciparum [3] = assay: Inhibition of plasmodium falciparum CDPK2 assessed as remaining activity at 1 uM incubated for 2 hrs by luciferin-based luminescence assay relative to control
Plasmodium falciparum [4] = assay: Inhibition of plasmodium falciparum CDPK5 assessed as remaining activity at 1 uM incubated for 2 hrs by luciferin-based luminescence assay relative to control
Plasmodium falciparum [5] = assay: Inhibition of plasmodium falciparum PK5 assessed as remaining activity at 1 uM incubated for 2 hrs by luciferin-based luminescence assay relative to control
Plasmodium falciparum [6] = assay: Inhibition of plasmodium falciparum NEK1 assessed as remaining activity at 1 uM incubated for 2 hrs by luciferin-based luminescence assay relative to control
Plasmodium falciparum [7] = assay: Inhibition of plasmodium falciparum PKB assessed as remaining activity at 1 uM incubated for 2 hrs by luciferin-based luminescence assay relative to control
Plasmodium falciparum [8] = assay: Inhibition of plasmodium falciparum ARK1 assessed as remaining activity at 1 uM incubated for 2 hrs by luciferin-based luminescence assay relative to control
Plasmodium falciparum [9] = assay: Antimalarial activity against blood stage Plasmodium falciparum 3D7 assessed as reduction in parasite growth incubated for 72 hrs by SYBR Green dye based fluorescence assay; format: functional, organism-based; conditions: 3D7, 72 h
Plasmodium falciparum [10] = assay: Inhibition of plasmodium falciparum ARK3 assessed as remaining activity at 1 uM incubated for 2 hrs by luciferin-based luminescence assay relative to control
[11] = Microsomal stability in human liver microsomes assessed as parent compound remaining at 5 uM measured after 30 mins in presence of NADPH; format: ADME, Microsome; conditions: 0.5 h
Plasmodium berghei = assay: Antimalarial activity against liver stage Plasmodium berghei ANKA sporozoites in human HepG2 cells assessed as reduction in parasite load measured after 44 hrs by […] reagent based […] analysis; format: functional, organism-based
HepG2 [12] = assay: Cytotoxicity against human HepG2 cells assessed as reduction in cell viability by CellTiter-Glo assay; format: toxicity, cell-based
[13] = molecular target: T2, Glycogen synthase kinase 3 (Plasmodium falciparum (isolate 3D7)) (UniProt O77344); assay: Inhibition of plasmodium falciparum GSK3 assessed as remaining activity at 1 uM incubated for 2 hrs by luciferin-based luminescence assay relative to control
T2 sequence (whole entry): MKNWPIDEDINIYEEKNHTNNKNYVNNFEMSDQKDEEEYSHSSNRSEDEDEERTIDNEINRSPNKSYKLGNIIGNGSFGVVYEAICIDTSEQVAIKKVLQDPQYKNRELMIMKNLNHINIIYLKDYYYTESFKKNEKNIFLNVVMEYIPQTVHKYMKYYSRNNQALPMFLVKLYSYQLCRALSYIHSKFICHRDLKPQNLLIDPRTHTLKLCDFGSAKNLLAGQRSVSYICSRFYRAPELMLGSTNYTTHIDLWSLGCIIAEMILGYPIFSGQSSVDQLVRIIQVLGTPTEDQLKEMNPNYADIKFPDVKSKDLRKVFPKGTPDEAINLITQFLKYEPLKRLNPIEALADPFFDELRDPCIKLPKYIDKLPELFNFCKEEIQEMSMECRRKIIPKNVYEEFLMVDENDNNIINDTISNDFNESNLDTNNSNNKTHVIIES

Plasmodium falciparum [14] = assay: Inhibition of plasmodium falciparum NEK3 assessed as remaining activity at 1 uM incubated for 2 hrs by luciferin-based luminescence assay relative to control
Plasmodium falciparum [15] = assay: Inhibition of plasmodium falciparum PK9 assessed as remaining activity at 1 uM incubated for 2 hrs by luciferin-based luminescence assay relative to control
[16] = Apparent permeability of compound by PAMPA assay; format: ADME
[17] = Microsomal stability in mouse liver microsomes assessed as parent compound remaining at 5 uM measured after 30 mins in presence of NADPH; format: ADME, Microsome; conditions: 0.5 h
[18] = Kinetic solubility of the compound at pH 7.4; format: physicochemical; conditions: buffer, read-out: Kinetic_solubility
Plasmodium falciparum [19] = assay: Inhibition of plasmodium falciparum PK5 assessed as remaining activity at 1 uM by Kinomescan method relative to control
[20] = molecular target: Calcium-dependent protein kinase 1 (Plasmodium falciparum) (UniProt P62344); assay: Inhibition of plasmodium falciparum CDPK1 assessed as remaining activity at 1 uM by Kinomescan method relative to control; conditions: time 2.0 hrs
Chain of Calcium-dependent protein kinase 1 (Plasmodium falciparum) (P62344 2-524 limits assumed): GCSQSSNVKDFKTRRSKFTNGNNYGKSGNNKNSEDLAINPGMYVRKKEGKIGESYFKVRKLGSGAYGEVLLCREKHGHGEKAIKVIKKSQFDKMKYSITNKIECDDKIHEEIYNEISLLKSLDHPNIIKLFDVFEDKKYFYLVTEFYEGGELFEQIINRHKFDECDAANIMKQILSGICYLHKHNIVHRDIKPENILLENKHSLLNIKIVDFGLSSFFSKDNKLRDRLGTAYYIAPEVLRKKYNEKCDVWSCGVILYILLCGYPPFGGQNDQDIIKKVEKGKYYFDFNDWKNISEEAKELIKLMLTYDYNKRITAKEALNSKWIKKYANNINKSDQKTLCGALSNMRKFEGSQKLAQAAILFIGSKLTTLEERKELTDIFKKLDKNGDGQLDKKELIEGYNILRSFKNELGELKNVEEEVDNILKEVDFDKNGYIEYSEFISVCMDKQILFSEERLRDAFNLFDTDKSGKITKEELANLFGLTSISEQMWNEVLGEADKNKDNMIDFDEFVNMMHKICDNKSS

| SMILES | CC50 (HepG2 [2]) | Activity (Plasmodium falciparum [3]) | Activity (Plasmodium falciparum [4]) | Activity (Plasmodium falciparum [5]) | Activity (Plasmodium falciparum [6]) | Activity (Plasmodium falciparum [7]) | Activity (Plasmodium falciparum [8]) | pEC50 (Plasmodium falciparum [9]) | Activity (Plasmodium falciparum [10]) | Stability [11] | Activity (Plasmodium berghei) | CC50 (HepG2 [12]) | Activity [13] | Activity (Plasmodium falciparum [14]) | Activity (Plasmodium falciparum [15]) | Papp [16] | Stability [17] | solubility kinetic [18] | Activity (Plasmodium falciparum [19]) | Activity [20] | further results |
| --- | --- | --- | --- | --- | --- | --- | --- | --- | --- | --- | --- | --- | --- | --- | --- | --- | --- | --- | --- | --- | --- |
| Cn1cnc2c(NCc3ccccc3)nc(NCCO)nc21 [OLOMOUCINE] |  |  |  |  |  |  |  |  |  |  |  |  |  |  |  |  |  |  |  |  | pIC50 [1]: 3.74 |
| COc1cc2nccc(Oc3ccc(NC(=O)Nc4ccc(OC5CCN(C)CC5)c(C(F)(F)F)c4)c(F)c3)c2cc1OC | 410 nM | 78% | 25% | 94% | 100% | 20% | 94% | 7.40 | 97% | 88.6% | inactive | 1000 nM | 30% | 6% | 79% | < 0.513 10^-6 cm/s | 69.7% | 1.5 µM (≈ 0.922 µg/mL) |  |  |  |
| COc1cc2nccc(Oc3ccc(NC(=O)Nc4ccc(C=C5CCNCC5)cc4)c(F)c3)c2cc1OC | 6620 nM | 96% | 98% | 100% | 100% | 38% | 98% | 6.85 |  | 88.6% | inactive | 2570 nM | 100% | 84% |  | < 0.709 10^-6 cm/s | 86.7% | 7.4 µM (≈ 3.91 µg/mL) |  |  |  |
| COc1cc2nccc(Oc3ccc(NC(=O)Nc4ccc(CC5CCNCC5)cc4)c(F)c3)c2cc1OC | 3290 nM | 88% | 91% | 97% | 100% | 30% | 97% | 6.80 |  |  | inactive | 4390 nM | 97% | 82% | 99% | < 0.669 10^-6 cm/s | 85.8% | 10.9 µM (≈ 5.78 µg/mL) | 84% | 51% |  |
| COc1cc2nccc(Oc3ccc(NC(=O)Nc4ccc(CC5CCNCC5)c(C(F)(F)F)c4)c(F)c3)c2cc1OC | 1290 nM | 64% | 27% | 94% | 100% | 21% | 100% | 7.41 | 87% | 98.1% |  | 1290 nM | 34% | 7% | 89% | 0.734 10^-6 cm/s |  | 2.1 µM (≈ 1.26 µg/mL) | 80% | 1.1% | pEC50 (Plasmodium berghei; HepG2, 44 h): 6.66 |

From ChEMBL document CHEMBL5346901, “Discovery of potent Plasmodium falciparum protein kinase 6 (PfPK6) inhibitors with a type II inhibitor pharmacophore” (Eur J Med Chem, 2023)
